In patent US10076576B2, “Minimally toxic prodrugs” (priority 2012, dated 2018):
Several values for one entry are separate records, joined by “and”; a condition that tells them apart may be missing. Equal entries are not always repeated. Where two headings read alike, the source gives them in different places.

Tests used:
[1] = Procedure: FIG. 7. Toxicity study of PhAc-ALGP-Dox after single and multiple intraperitoneal (ip) injections in OF-1 mice. Animals were treated with PhAc-ALGP-Dox with different treatment schedules: at 56 μmol/kg 5× (Q1D5 -*-); at 28 μmol/kg 10× (2Q1D5 -▪-); at 560 μmol/kg 1× (-□-); at 112 μmol/kg 5× (Q1D5 -▴-); at 56 μmol/kg 10× (2Q1D5 -×-).
PhAc-ALGP-Dox was dissolved in saline and administered by single or multiple intraperitoneal (ip) injections […] of OF-1 mice (10 μl/g). PhAc-ALGP-Dox was administered at similar cumulative doses of 280 and 560 μmol/kg following different injections schedules: single ip injection; 5 consecutive daily ip injections at 56 and 112 μmol/kg or twice a day for five consecutive days at the doses of 28 and 56 μmol/kg. The in vivo toxicity was evaluated by monitoring the body weight.

[2] = tested on: LoVo colon carcinoma human xenografts; experiment: Efficacy after repeated ip injections (2Q1D5), LoVo xenograft; type: in vivo, NMRI nude mice; conditions: for TGD: 190 to 1,000 mm^3
Procedure: FIG. 9. Efficacy study of PhAc-ALGP-Dox in comparison with free Doxorubicin in NMRI nude mice bearing LoVo colon carcinoma human xenografts. Drugs or controls were administered by the i.p. route twice a day for five consecutive days (arrows). The mice receiving a constant volume (10 μL/g) of either saline (-●-) or of the different dosing solutions: PhAc-ALGP-Dox 25 μmol/kg (*), 35 μmol/kg (◯) and 50 μmol/kg (+); Dox 0.5 μmol/kg (▪), 1 μmol/kg (▴) and 2 μmol/kg (×).
The efficacy of PhAc-ALGP-Dox was assessed using athymic mice (nude/nude NMRI) carrying ectopic xenograft of human LoVo colon carcinoma or of MX-1 mammary carcinoma in comparison with free Doxorubicin. Tumors were established by a subcutaneous implantation of cells (10^7 cells) in the right flank of 6 weeks old female NMRI nude mice (Harlan). Treatments were administered when the tumors reached a size of 150-200 mm^3 (measured using a caliper and calculated with the following formula: […]). Animals were randomly assigned to groups of 4 to-6 animals. […] Compounds were delivered by bolus intraperitoneal injection (ip) at 10 μl/g. During the course of the experiment, clinical signs, body weight and tumor volume were controlled twice a week. Results are presented as the evolution of mean tumor volume as a function of time. Optimal T/C (ratio of mean tumor volume of treated versus control mice) values and TGD (tumor growth delay in reaching 1000 mm^3) were used as a measure of treatment efficacy. […] A statistical analysis was performed at day 22 using the Mann Whitney t test of the Graph Pad Prism 5.0 software.

[3] = mouse, in vivo, iv, 86.2 umol/kg
Procedure: Time evolution of plasma concentration (A, B) and of cardiac tissue concentration (C, D) of Doxorubicin or PhAc-ALGP-Dox and its metabolites after i.v. bolus injection to OF-1 female wild type mice at the dose of 86.2 μmol/kg. Results represent the mean concentration±SD (n=3).
Pharmacokinetic tissue distribution studies were performed using OF-1 mice. […] At different time points after drug administration (5 min, 30 min, 1 h, 4 h, 7 h, 16 h and 24 h) 3 mice per group were sacrificed by cervical dislocation and blood and heart tissue were collected. Hearts were incised and rinsed carefully in phosphate buffer saline (to eliminate blood in the cardiac cavities), dried on paper and frozen in liquid nitrogen. They were stored until analysis. Blood samples were centrifuged (10 min, 2000 g, 4° C.) to separate the plasma fraction, which was stored for analysis. The hearts were homogenized with an Ultraturrax homogenizer in 1.5 mL water. The protein concentration was measured using the microBCA protein assay (Pierce). The drug tissue quantification was made by HPLC after extraction: 150 μL of acetonitrile was added to the 50 μL samples. Samples were vortexed and centrifuged for 10 min at 13 000 rpm at room temperature. Supernatant was collected. Samples were buffered by addition of 200 mM formiate buffer pH 4.5 (1 V sample supernatant+3 V buffer) before HPLC analysis (fluo detection ex=235 nm em=560 nm).

[4] = In vivo toxicity after single iv bolus injection (body weight); parameters: species or system OF-1 mice
Procedure: FIG. 1. Effect of PhAc-peptide-Dox conjugates on the body weight of OF-1 normal mice (n=4). […] Results represent the mean body weight evolution.
The in vivo toxicity was evaluated by monitoring body weight.

[5] = In vitro cytotoxicity on control fibroblasts (neutral red uptake); type: cell-based, mouse; conditions: mouse, inactivated mouse embryonic fibroblasts (MEF), 20 μg/ml
Procedure: (§1) FIG. 5. In vitro cellular toxicity of PhAc-ALGP-Dox and Doxorubicin on Cor.At® cells (mouse embryonic stem cell derived cardiomyocytes). As non-specific control, the test was also performed on inactivated mouse embryonic fibroblasts (MEF). Cells were cultured for 48 h in the presence of drugs and a neutral red uptake test was performed to determine cell viability. Results represent the cytotoxicity curves. The IC50 values were calculated from the cytotoxicity curves using the Prism GraphPad software 5.0.
(§2) The in vitro cardiotoxicity test was carried out in a relevant and predictive in vitro model for cardiac safety screening in early lead optimization using mouse embryonic stem cell derived cardiomyocytes (Cor.At®, Axiogenesis (Germany)). Cor.At® cardiomyocytes provide a standardized, homogenous and reproducible cell system for the in vitro classification of a compound's cardio-cytotoxic potential. After incubation with test compounds, the neutral red uptake test was used to determine effects which directly affect the viability and integrity of cardiac cells when compared to a non-specific reference cell type, e.g. mouse fibroblasts (MEF).

[6] = In vitro cytotoxicity on Cor.At cardiomyocytes (neutral red uptake); type: cell-based, mouse; conditions: mouse, 20 μg/ml
Procedure: as §1, §2

[7] = molecular target: T1, CD10 (recombinant human neprilysin) (Homo sapiens, UniProt P08473); experiment: Reactivation assay with purified CD10; type: biochemical; conditions: 3 h at 37° C., 50 μM compound
T1 construct: purchased R&D systems 1182-ZN
T1 sequence (P08473 52-750 limits assumed): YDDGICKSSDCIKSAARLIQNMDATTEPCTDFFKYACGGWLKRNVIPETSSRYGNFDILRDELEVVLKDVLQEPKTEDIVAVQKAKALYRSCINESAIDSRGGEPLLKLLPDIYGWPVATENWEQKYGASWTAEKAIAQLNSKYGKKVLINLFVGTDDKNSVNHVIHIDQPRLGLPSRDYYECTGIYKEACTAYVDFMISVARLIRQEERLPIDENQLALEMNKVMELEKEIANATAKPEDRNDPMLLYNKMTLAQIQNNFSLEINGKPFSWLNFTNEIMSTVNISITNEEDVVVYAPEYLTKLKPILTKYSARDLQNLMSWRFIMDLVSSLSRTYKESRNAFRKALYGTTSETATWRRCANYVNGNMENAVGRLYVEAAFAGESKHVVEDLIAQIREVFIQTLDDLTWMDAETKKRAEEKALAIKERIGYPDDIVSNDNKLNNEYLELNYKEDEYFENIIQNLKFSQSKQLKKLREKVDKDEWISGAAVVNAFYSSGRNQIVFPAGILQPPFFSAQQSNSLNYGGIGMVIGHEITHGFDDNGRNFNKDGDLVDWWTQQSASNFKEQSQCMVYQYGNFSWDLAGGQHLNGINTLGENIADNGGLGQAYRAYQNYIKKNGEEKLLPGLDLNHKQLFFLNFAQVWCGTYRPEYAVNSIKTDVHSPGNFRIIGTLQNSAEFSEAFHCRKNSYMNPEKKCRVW

Compound: COc1cccc2c1C(=O)c1c(O)c3c(c(O)c1C2=O)C[C@@](O)(C(=O)CO)C[C@@H]3O[C@H]1C[C@H](N)[C@H](O)[C@H](C)O1 [Doxorubicin, reference compound]
- maximum tolerated dose ([1]; OF-1, mouse, in vivo, ip): 3 µmol/kg
- TGD ([2]; 0.5 μmol/kg ip 2Q1D5): 1 days
- TGI [% (day)] ([2]; 1 μmol/kg ip 2Q1D5): no antitumor activity and no
- TGD ([2]; 1 μmol/kg ip 2Q1D5): 0 days
- TGD ([2]; 2 μmol/kg ip 2Q1D5): 6 days
- TGI [% (day)] ([2]; 2 μmol/kg ip 2Q1D5, day 22, listed as Dox): 45%
- Heart AUC of Dox [3]: 5863 pmol · h/mg protein

Compound: COc1cccc2c1C(=O)c1c(O)c3c(c(O)c1C2=O)CC(O)(C(=O)CO)CC3OC1CC(NC(=O)C2CCCN2C(=O)CNC(=O)C(CC(C)C)NC(=O)C(C)NC(=O)CP(=O)(O)O)C(O)C(C)O1 (stereo not shown) [PhAc-ALGP-Dox, PhAc-ALGP-doxorubicin]
- maximum body weight loss ([4]; 240 μmol/kg single iv, day 28): 15%
- body weight loss (in words) ([4]; 320 μmol/kg single iv): significant body weight loss
- mortality ([4]; 320 μmol/kg single iv): one mouse was found dead at day 12
- tolerability (in words) ([4]; 240 and 320 μmol/kg single iv): well tolerated
- MTD ([4]; OF-1, mouse, in vivo, single iv bolus injection, read-out: maximum tolerated dose (MTD)): 240 to 320 µmol/kg
- times less toxic than Dox ([4]; after one intravenous injection): at least 6 times
- body weight loss (in words) ([1]; 56 μmol/kg, 10 ip injections (twice a day for five consecutive days)): No body weight loss
- maximum body weight loss ([1]; 112 μmol/kg, five consecutive daily ip injections, day 11): 22.5%
- toxicity (in words) ([1]; 560 μmol/kg single ip injection): very toxic
- body weight lost ([1]; 560 μmol/kg single ip injection, in one week): 25%
- body weight loss (in words) ([1]; cumulative dose 280 μmol/kg ip, whatever the injection schedule): no body weight loss
- times less toxic than doxorubicin ([1]; ip twice a day for five consecutive days): about 15 times
- viability at 48 h, 20 µg/mL [5]: 81%
- viability at 48 h, 20 µg/mL [6]: 37%
- % Metabolites released after 3 h (CD10 10 nM) [7]: 25% and 25 ± 4%
- TGD ([2]; 25 μmol/kg ip 2Q1D5): 5 days
- TGI [% (day)] ([2]; 25 μmol/kg ip 2Q1D5, day 22): 32 (22) %
- TGD ([2]; 35 μmol/kg ip 2Q1D5): 13 days
- TGI [% (day)] ([2]; 35 μmol/kg ip 2Q1D5, day 22): 60 (22) %
- TGD ([2]; 50 μmol/kg ip 2Q1D5): 17 days
- TGI [% (day)] ([2]; 50 μmol/kg ip 2Q1D5, day 22): 65% and 65 (22) %
